Drawing on paper PMC2453323 (PLoS Pathogens, 2008), this text covers Km for 1 compound.

Type in all cases: biochemical
For assay [1], the target named is neuraminidase of A(H1N1) clinical isolate 0006/07 (Influenza A virus (H1N1), UniProt D5F1R0, K249G).
Assay [2] addresses neuraminidase (H275Y) of A(H1N1) clinical isolate 0644/07 (Influenza A virus (H1N1), UniProt D5F1R0, D354G/H275Y).
For assay [3], the target named is neuraminidase (H275Y) of A(H1N1) clinical isolate 1154/08 (Influenza A virus (H1N1), UniProt G3LYR2).
Assay [4] concerns the target neuraminidase (H275Y) of A(H1N1) clinical isolate 0847/07 (Influenza A virus (H1N1), UniProt D5F1R0, D354G/H275Y).
Assay [5] concerns the target neuraminidase (H275Y) of A(H1N1) clinical isolate 0577/07 (Influenza A virus (H1N1), UniProt D5F1R0, D354G/H275Y).
The target in assay [6] is neuraminidase (H275Y) of A(H1N1) clinical isolate 0749/07 (Influenza A virus (H1N1), UniProt D5F1R0, D354G/H275Y).
Assay [7] addresses neuraminidase (H275Y) of A(H1N1) clinical isolate 0341/07 (Influenza A virus (H1N1), UniProt D5F1R0, D354G/H275Y).
For assay [8], the target named is neuraminidase (H275Y) of A(H1N1) clinical isolate 1208/08 (Influenza A virus (H1N1), UniProt G3LYR2).
For assay [9], the target named is neuraminidase (H275Y) of A(H1N1) clinical isolate 0910/08 (Influenza A virus (H1N1), UniProt G3LYR2).
For assay [10], the target named is neuraminidase (H275Y) of the 11 resistant H1N1 viruses from the 2007–2008 season (Influenza A virus (H1N1), UniProt G3LYQ1, H275Y). The following applies: read-out: Mean Km, group Mean.
Assay [11] deals with neuraminidase (H275Y) of A(H1N1) clinical isolate 0963/08 (Influenza A virus (H1N1), UniProt G3LYR2, G354D).
For assay [12], the target named is neuraminidase (H275Y) of A(H1N1) clinical isolate 1157/08 (Influenza A virus (H1N1), UniProt G3LYR2, G214E).
Assay [13] deals with neuraminidase (H275Y) of A(H1N1) clinical isolate 1170/08 (Influenza A virus (H1N1), UniProt G3LYR2).

Turning to `CC(=O)N[C@@H]1[C@@H](O)C[C@](Oc2ccc3c(C)cc(=O)oc3c2)(C(=O)O)O[C@H]1C(O)[C@H](O)CO` (stereo partly shown) [MUNANA], the Km in assay [1] was 12.4 µM; in assay [2], 18.4 µM; in [3] it was 14.5 µM; in assay [4], 24 µM; in [5] it was 19.5 µM; in assay [6], 18 µM. Also, the Km in assay [7] was found to be 18 µM; in assay [8], 19 µM; in [9], 25 µM; in [10], 19.4 µM; in assay [11], 18.4 µM; in assay [12], 20 µM. Further, the Km in assay [13] stood at 18.2 µM.
